# Reference: patent US12459921B2, “Isoindoline compound, preparation method, pharmaceutical composition and use thereof” (SHANGHAI INSTITUTE OF MATERIA MEDICA, CHINESE ACADEMY OF …, priority 2018, dated 2025)
# pIC50: −log10 of the molar value. Where two headings read alike, the source gives them in different places.
# Tested on: MM.1S cells
# Test: Inhibitory effect on the proliferation of MM.1S, MTS cell viability test
# Assay type: cell-based
# Conditions: multiple myeloma MM.1S cells, 7 days incubation, read-out: Tumor cell inhibitory activity
# Summary of the method: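 MM.1S cells (20,000/well, RPMI 1640 with 10% FBS) exposed to 5-fold compound dilutions at 0.2% DMSO for 7 days at 37° C, 5% CO2. MTS added for 3-4 h; OD490-OD690 gave inhibition versus DMSO, IC50 fitted, mean of three experiments.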
Structure (SMILES),"pIC50 (Homo sapiens, MM1.S, 168 h)",pIC50
"O=C1CCC(N2Cc3c(CCCCCN4CCN(c5noc6ccccc56)CC4)cccc3C2=O)C(=O)N1 (centres unmarked) [Example 231, 3-(4-(5-(4-(benzisoxazole-3-yl)piperazin-1-yl)pentyl)-1-oxoisoindoline-2-yl) piperidine-2,6-dione]",4.70 to 6.00,
"O=C1CCC(N2Cc3c(CCCCCN4CCN(c5nsc6ccccc56)CC4)cccc3C2=O)C(=O)N1 (centres unmarked) [Example 232, 3-(4-(5-(4-(benzisothiazol-3-yl)piperazin-1-yl)pentyl)-1-oxoisoindoline-2-yl) piperidine-2,6-dione]",4.70 to 6.00,
"O=C1CCC(N2Cc3c(CCCCCN4CCN(c5cc(Cl)ccc5Cl)CC4)cccc3C2=O)C(=O)N1 (centres unmarked) [Example 233, 3-(4-(5-(4-(2,5-dichlorophenyl)piperazine-1-yl)pentyl)-1-oxoisoindoline-2-yl) piperidine-2,6-dione]",6.00 to 7.00,
"O=C1CCC(N2Cc3c(CCCCCN4CCN(c5ccc(Cl)c(Cl)c5)CC4)cccc3C2=O)C(=O)N1 (centres unmarked) [Example 234, 3-(4-(5-(4-(3,4-dichlorophenyl)piperazine-1-yl)pentyl)-1-oxoisoindoline-2-yl)piperidine-2,6-dione]",6.00 to 7.00,
"O=C1CCC(N2Cc3c(CCCCCN4CCN(c5ccc(Cl)cc5Cl)CC4)cccc3C2=O)C(=O)N1 (centres unmarked) [Example 236, 3-(4-(5-(4-(2,4-dichlorophenyl)piperazine-1-yl)pentyl)-1-oxoisoindoline-2-yl)piperidine-2,6-dione]",4.70 to 6.00,
"O=C1CCC(N2Cc3c(CCCCCN4CCN(c5cc(Cl)cc(Cl)c5)CC4)cccc3C2=O)C(=O)N1 (centres unmarked) [Example 237, 3-(4-(5-(4-(3,5-dichlorophenyl)piperazine-1-yl)pentyl)-1-oxoisoindoline-2-yl)piperidine-2,6-dione]",6.00 to 7.00,
"O=C1CCC(N2Cc3c(OCCCN4CCN(c5cccc(Cl)c5Cl)CC4)cccc3C2=O)C(=O)N1 (centres unmarked) [Example 238, 3-(4-(3-(4-(2,3-dichlorophenyl)piperazine-1-yl)propoxy)-1-oxoisoindoline-2-yl)piperidine-2,6-dione]",6.00 to 7.00,
"O=C1CCC(N2Cc3c(OCCCCN4CCN(c5cccc6ccsc56)CC4)cccc3C2=O)C(=O)N1 (centres unmarked) [Example 239, 3-(4-(4-(4-(benzothiophene-7-yl)piperazine-1-yl)butoxy)-1-oxoisoindoline-2-yl)piperidine-2,6-dione]",4.70 to 6.00,
"O=C1CCC(N2Cc3c(OCCCCN4CCN(c5cccc(Cl)c5Cl)CC4)cccc3C2=O)C(=O)N1 (centres unmarked) [Example 240, 3-(4-(4-(4-(2,3-dichlorophenyl)piperazine-1-yl)butoxy)-1-oxoisoindoline-2-yl)piperidine-2,6-dione]",4.70 to 6.00,
"O=C1CCC(N2Cc3c(OCCCCN4CCC(c5noc6cc(F)ccc56)CC4)cccc3C2=O)C(=O)N1 (centres unmarked) [Example 241, 3-(4-(4-(4-(6-fluorobenzisoxazole-3-yl)piperidin-1-yl)butoxy)-1-oxoisoindoline-2-yl) piperidine-2,6-dione]",4.70 to 6.00,
"O=C1CCC(N2Cc3c(OCCCCN4CCN(c5noc6ccccc56)CC4)cccc3C2=O)C(=O)N1 (centres unmarked) [Example 242, 3-(4-(4-(4-(benzisoxazole-3-yl)piperazine-1-yl)butoxy)-1-oxoisoindoline-2-yl)piperidine-2,6-dione]",4.70 to 6.00,
"O=C1CCC(N2Cc3c(OCCCCN4CCN(c5ccc(Cl)c(Cl)c5)CC4)cccc3C2=O)C(=O)N1 (centres unmarked) [Example 243, 3-(4-(4-(4-(3,4-dichlorophenyl)piperazine-1-yl)butoxy)-1-oxoisoindoline-2-yl)piperidine-2,6-dione]",6.00 to 7.00,
"N#CC1(c2cc(Cl)cc(Cl)c2)CCN(CCCCc2cccc3c2CN(C2CCC(=O)NC2=O)C3=O)CC1 (centres unmarked) [Example 244, 4-(3,5-dichlorophenyl)-1-(4-(2-(2,6-dioxopiperidine-3-yl)-1-oxoisoindoline-4-yl)butyl)piperidine-4-carbonitrile]",6.00 to 7.00,
"COc1ccc(C2(C#N)CCN(CCCCc3cccc4c3CN(C3CCC(=O)NC3=O)C4=O)CC2)c(Cl)c1 (centres unmarked) [Example 245, 4-(2-chloro-4-methoxyphenyl)-1-(4-(2-(2,6-dioxopiperidine-3-yl)-1-oxoisoindoline-4-yl)butyl)piperidine-4-carbonitrile]",6.00 to 7.00,
"COc1ccc(OC)c(C2(C#N)CCN(CCCCc3cccc4c3CN(C3CCC(=O)NC3=O)C4=O)CC2)c1 (centres unmarked) [Example 246, 4-(2,5-dimethoxyphenyl)-1-(4-(2-(2,6-dioxopiperidine-3-yl)-1-oxoisoindoline-4-yl)butyl)piperidine-4-carbonitrile]",6.00 to 7.00,
"COc1ccc(OC)c(C2(C#N)CCN(CCCCCc3cccc4c3CN(C3CCC(=O)NC3=O)C4=O)CC2)c1 (centres unmarked) [Example 247, 4-(2,5-dimethoxyphenyl)-1-(5-(2-(2,6-dioxopiperidine-3-yl)-1-oxoisoindoline-4-yl)pentyl)piperidine-4-carbonitrile]",6.00 to 7.00,

Structure (SMILES),"pIC50 (Homo sapiens, MM1.S, 168 h)",pIC50
"COc1ccc(C2(C#N)CCN(CCCCCc3cccc4c3CN(C3CCC(=O)NC3=O)C4=O)CC2)cc1OC (centres unmarked) [Example 249, 4-(3,4-dimethoxyphenyl)-1-(5-(2-(2,6-dioxopiperidine-3-yl)-1-oxoisoindoline-4-yl)pentyl)piperidine-4-carbonitrile]",6.00 to 7.00,
"N#CC1(c2c(Cl)cccc2Cl)CCN(CCCCCc2cccc3c2CN(C2CCC(=O)NC2=O)C3=O)CC1 (centres unmarked) [Example 250, 4-(2,6-dichlorophenyl)-1-(5-(2-(2,6-dioxopiperidin-3-yl)-1-oxoisoindoline-4-yl)pentyl)piperidine-4-carbonitrile]",6.00 to 7.00,
"N#CC1(c2cc(Cl)cc(Cl)c2)CCN(CCCCCc2cccc3c2CN(C2CCC(=O)NC2=O)C3=O)CC1 (centres unmarked) [Example 251, 4-(3,5-dichlorophenyl)-1-(5-(2-(2,6-dioxopiperidin-3-yl)-1-oxoisoindoline-4-yl)pentyl)piperidine-4-carbonitrile]",6.00 to 7.00,
"N#CC1(c2ccc(O[C@H]3CCOC3)cc2)CCN(CCCCCc2cccc3c2CN(C2CCC(=O)NC2=O)C3=O)CC1 (stereo partly drawn) [Example 252, 1-(5-(2-(2,6-dioxopiperidin-3-yl)-1-oxoisoindolin-4-yl)pentyl)-4-(4-(((S)-tetrahydrofuran-3-yl)oxy)phenyl)piperidine-4-carbonitrile]",6.00 to 7.00,
"COc1ccc(C2(C#N)CCN(CCCCc3cccc4c3CN(C3CCC(=O)NC3=O)C4=O)CC2)c(OC)c1OC (centres unmarked) [Example 253, 1-(4-(2-(2,6-dioxopiperidin-3-yl)-1-oxoisoindolin-4-yl)butyl)-4-(2,3,4-trimethoxyphenyl)piperidine-4-carbonitrile]",4.70 to 6.00,
"COc1ccc(C2(C#N)CCN(CCCCCc3cccc4c3CN(C3CCC(=O)NC3=O)C4=O)CC2)c(OC)c1OC (centres unmarked) [Example 254, 1-(5-(2-(2,6-dioxopiperidin-3-yl)-1-oxoisoindolin-4-yl)pentyl)-4-(2,3,4-trimethoxyphenyl)piperidine-4-carbonitrile]",4.70 to 6.00,
"COc1ccc(C2(C#N)CCN(CCCCCc3cccc4c3CN(C3CCC(=O)NC3=O)C4=O)CC2)c(OC)c1 (centres unmarked) [Example 255, 4-(2,4-dimethoxyphenyl)-1-(5-(2-(2,6-dioxopiperidin-3-yl)-1-oxoisoindoline-4-yl)pentyl)piperidine-4-carbonitrile]",4.70 to 6.00,
"COc1ccc(C2(C#N)CCN(CCCCc3cccc4c3CN(C3CCC(=O)NC3=O)C4=O)CC2)c(OC)c1 (centres unmarked) [Example 256, 4-(2,4-dimethoxyphenyl)-1-(4-(2-(2,6-dioxopiperidin-3-yl)-1-oxoisoindoline-4-yl)butyl)piperidine-4-carbonitrile]",4.70 to 6.00,
"N#CC1(c2ccc(OC(F)(F)F)cc2Cl)CCN(CCCCc2cccc3c2CN(C2CCC(=O)NC2=O)C3=O)CC1 (centres unmarked) [Example 257, 4-(2-chloro-4-(trifluoromethoxy)phenyl)-1-(4-(2-(2,6-dioxopiperidin-3-yl)-1-oxoisoindolin-4-yl)butyl)piperidine-4-carbonitrile]",6.00 to 7.00,
"N#CC1(c2ccc(OC(F)(F)F)cc2Cl)CCN(CCCCCc2cccc3c2CN(C2CCC(=O)NC2=O)C3=O)CC1 (centres unmarked) [Example 258, 4-(2-chloro-4-(trifluoromethoxy)phenyl)-1-(5-(2-(2,6-dioxopiperidin-3-yl)-1-oxoisoindolin-4-yl)pentyl)piperidine-4-carbonitrile]",6.00 to 7.00,
"COc1cccc(C2(C#N)CCN(CCCCc3cccc4c3CN(C3CCC(=O)NC3=O)C4=O)CC2)c1OC (centres unmarked) [Example 259, 4-(2,3-dimethoxyphenyl)-1-(4-(2-(2,6-dioxopiperidin-3-yl)-1-oxoisoindoline-4-yl)butyl)piperidine-4-carbonitrile]",6.00 to 7.00,
"COc1cccc(C2(C#N)CCN(CCCCCc3cccc4c3CN(C3CCC(=O)NC3=O)C4=O)CC2)c1OC (centres unmarked) [Example 260, 4-(2,3-dimethoxyphenyl)-1-(5-(2-(2,6-dioxopiperidin-3-yl)-1-oxoisoindoline-4-yl)pentyl)piperidine-4-carbonitrile]",6.00 to 7.00,
"Cc1cc(C)c(C2(C#N)CCN(CCCCc3cccc4c3CN(C3CCC(=O)NC3=O)C4=O)CC2)c(C)c1 (centres unmarked) [Example 261, 1-(4-(2-(2,6-dioxopiperidin-3-yl)-1-oxoisoindolin-4-yl)butyl)-4-sym-trimethylphenylpiperidine-4-carbonitrile]",4.70 to 6.00,
"Cc1cc(C)c(C2(C#N)CCN(CCCCCc3cccc4c3CN(C3CCC(=O)NC3=O)C4=O)CC2)c(C)c1 (centres unmarked) [Example 262, 1-(5-(2-(2,6-dioxopiperidin-3-yl)-1-oxoisoindolin-4-yl)pentyl)-4-sym-trimethylphenylpiperidine-4-carbonitrile]",4.70 to 6.00,
"N#CC1(c2ccc(O[C@H]3CCOC3)cc2)CCN(CCCCCc2cccc3c2CN(C2CCC(=O)NC2=O)C3=O)CC1 (stereo partly drawn) [Example 263, 1-(5-(2-(2,6-dioxopiperidin-3-yl)-1-oxoisoindolin-4-yl)pentyl)-4-(4-(((S)-tetrahydrofuran-3-yl)oxy)phenyl)piperidine-4-carbonitrile]",,6.00 to 7.00
"COCCOc1ccc(C2(C#N)CCN(CCCCCc3cccc4c3CN(C3CCC(=O)NC3=O)C4=O)CC2)cc1 (centres unmarked) [Example 264, 1-(5-(2-(2,6-dioxopiperidin-3-yl)-1-oxoisoindolin-4-yl)pentyl)-4-(4-(2-methoxyethoxy)phenyl)piperidine-4-carbonitrile]",6.00 to 7.00,
